From PubChem BioAssay (NCI)
Values joined by “and” are separate entries in the source; they are usually repeats but may differ in a detail not shown here. Equal entries are not always repeated.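 Following 48 hours of exposure in 96-well plates, responses at five concentrations were used to interpolate endpoints linearly. GI50 marks 50% less growth. TGI: concentration producing complete growth inhibition.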

Key:
Assay in all cases: inhibition of tumour cell growth, NCI panel, 48 h
[1] = tested on: 786-0 renal
[2] = tested on: SF-539 CNS
[3] = tested on: A498 renal
[4] = tested on: NCI/ADR-RES ovarian
[5] = tested on: LOX IMVI melanoma
[6] = tested on: SF-268 CNS
[7] = tested on: A549 NSCLC
[8] = tested on: KM12 colon
[9] = tested on: NCI-H522 lung
[10] = tested on: MOLT-4 leukemia

SMILES	GI50 [1]	TGI [1]	GI50 [2]	TGI [2]	GI50 [3]	TGI [3]	GI50 [4]	TGI [4]	TGI [5]	GI50 [6]	TGI [6]	GI50 [7]	TGI [7]	GI50 [8]	TGI [8]	GI50 [9]	TGI [9]	GI50 [10]	TGI [10]	GI50 [5]
CCOC(=O)NC1=C(N2CC2)C(=O)C(NC(=O)OCC)=C(N2CC2)C1=O	4.02 µM and 1.78 µM	25 µM and 18.4 µM and 33.2 µM	1.57 µM	9.51 µM and 9.15 µM and 27.5 µM	8.08 µM and 5.41 µM	20.3 µM and 9.75 µM and 12.5 µM	8.44 µM	25 µM and 16.8 µM	17.1 µM and 11.9 µM	5.55 µM and 4.88 µM	25 µM and 20.7 µM and 26.9 µM	6.46 µM and 1.64 µM and 3.09 µM	25 µM and 43 µM and 40.2 µM	16.7 µM	25 µM and 35.3 µM	5.95 µM and 4.17 µM	17.5 µM and 9.09 µM and 9.12 µM	3.25 µM	12.6 µM and 11 µM	
Nc1nc2ccc3[nH]ncc3c2c2c1CCCC2	2.15 µM	9.85 µM	1.51 µM	3.18 µM	1.64 µM	3.49 µM	1.75 µM	5.57 µM	2.82 µM	1.88 µM	6.18 µM	2.24 µM	13.4 µM	2.82 µM	11.6 µM	2.17 µM	5.88 µM	2.81 µM	10.8 µM	1.29 µM
O=C(NCCCCCCNC(=O)n1cc(F)c(=O)[nH]c1=O)NCCCOCCOCCOCCOCCOCCOCCOCCOCCOCCOCCOCCOCCOCCOCCOCCOCCOCCOCCOCCOCCOCCCNC(=O)C(O)C(O)C(OC1OC(CO)C(O)C(O)C1O)C(O)CO (stereo unspecified)		> 100 µM		22.7 µM		> 100 µM		> 100 µM	> 100 µM		> 100 µM		> 100 µM		> 100 µM		> 100 µM		> 100 µM	
COc1ccc2nc3cc([N+](=O)[O-])ccc3c(NCCCN(CCO)CCO)c2c1	4.09 µM	21.1 µM	7.63 µM	20.3 µM	18 µM	38.6 µM	15.9 µM	39.9 µM	6.32 µM	4.09 µM	10.8 µM	10.9 µM	24.6 µM	2.64 µM	9.97 µM	1.36 µM	2.86 µM	2.59 µM	5.99 µM	2.42 µM
Cc1cc([N+](=O)[O-])ccc1NS(=O)(=O)c1cc(Cl)ccc1Cl	3.03 µM	22.6 µM	3.45 µM	20.7 µM	1.43 µM	6.24 µM	3.07 µM	17.5 µM	13 µM	4.49 µM	> 100 µM	2.91 µM	> 51 µM	4.04 µM	34.5 µM	2.44 µM	8.68 µM	4.03 µM	20.1 µM	3.44 µM
CC(C)[NH-].CC(C)[NH-].O.O.[Cl][Pt+2][Cl]	33.8 µM	126 µM	47.3 µM	160 µM	150 µM	358 µM	60.9 µM	343 µM	51.4 µM	38.1 µM	231 µM	33.9 µM	213 µM	96.1 µM	251 µM	20.4 µM	74.2 µM	10.2 µM	132 µM	18.3 µM
Fc1cccc(CSc2ncnc3c2ncn3C2CCCS2)c1 (stereo unspecified)		51.5 µM		25.8 µM		41.8 µM		96.7 µM	34.9 µM		> 100 µM		> 100 µM		38.9 µM		44 µM		24 µM	
O=C(O)c1ccc2c3c(ncnc13)-c1ccccc1C2=O	37 µM	> 100 µM	8.5 µM	> 100 µM	1.96 µM	10.9 µM	42.8 µM	> 100 µM	18.5 µM	37.1 µM	> 100 µM	2.23 µM	4.84 µM	7 µM	> 100 µM	13.8 µM	> 100 µM	> 100 µM	> 100 µM	1.74 µM
Cc1cccc(Cl)c1NC(=O)c1cnc(Nc2cc(N3CCOCC3)cc(N3CCOCC3)c2)s1	0.0183 µM		0.0366 µM	> 6.8 µM	0.0248 µM	0.473 µM	1.05 µM	> 10 µM	0.083 µM	0.0626 µM	> 10 µM	0.158 µM	> 10 µM	> 6.22 µM	> 10 µM	0.0307 µM	> 5.79 µM	> 4.96 µM	> 10 µM	0.012 µM
Cn1c(/C=C(\C#N)c2cccc(C(F)(F)F)c2)nc2c(N3CCOCC3)nc(Cl)nc21	1.43 µM	2.82 µM	1.25 µM	2.52 µM	1.38 µM	2.72 µM	1.72 µM	6.72 µM	1.36 µM	1.51 µM	3.25 µM	1.31 µM	3.3 µM	1.82 µM	3.58 µM	0.657 µM	2.32 µM	0.381 µM	1.55 µM	0.321 µM
COc1cc(F)cc([C@@H](CO)NC(=O)[C@@H](C)N2Cc3ccc(-c4nc(NC5CCOCC5)ncc4Cl)cc3C2=O)c1	9.23 µM	> 100 µM	5.33 µM	33.9 µM	0.0878 µM	5.86 µM	16.3 µM	78.2 µM	11.8 µM	14.1 µM	99.6 µM	0.566 µM	> 100 µM	0.0988 µM	37.4 µM	13.4 µM	60.4 µM	7.42 µM	34.1 µM	< 0.0181 µM
COc1c2c(c(CC=C(C)C)c3oc(=O)c(-c4ccc(O)cc4)c(O)c13)OC(C)(C)C=C2		71.3 µM		32.8 µM		> 100 µM		93.7 µM	> 100 µM		41 µM		> 100 µM		35 µM		62.9 µM		91 µM	
CN[C@@H]1C[C@H]2O[C@@](C)([C@@H]1OC)n1c3ccccc3c3c4c(c5c6ccccc6n2c5c31)C(=O)N[C@H]4O		0.203 µM	0.0266 µM	0.115 µM	0.0053 µM	0.0203 µM	0.167 µM	0.907 µM	1.09 µM	0.024 µM	2.31 µM	0.0465 µM	3 µM	0.0395 µM	1.07 µM	0.103 µM	0.878 µM	0.0337 µM	> 4.75 µM	
O=C(Nc1ccc2[nH]c(C(=O)N3CC(CCl)c4c3cc([N+](=O)[O-])c3ccccc43)cc2c1)c1cc2ccccc2o1 (stereo unspecified)	> 1100 µM	> 1100 µM		> 1100 µM	> 1100 µM	> 1100 µM	> 1100 µM	> 1100 µM	> 1100 µM	> 1100 µM	> 1100 µM	> 1100 µM	> 1100 µM	> 1100 µM	> 1100 µM	> 1100 µM	> 1100 µM	180 µM	> 1100 µM	> 1100 µM
Cc1cc(Oc2cnc(=O)[nH]c2)cs1		> 100 µM		> 100 µM		> 100 µM		> 100 µM	> 100 µM		> 100 µM		> 100 µM		> 100 µM		> 100 µM		> 100 µM	
COc1ccc2c(c1)c1nc3cc(C)c(C)cc3nc1n2CCN(C)C	1.02 µM	2.73 µM	0.907 µM	2.35 µM	1.25 µM	2.58 µM	0.599 µM	2.46 µM	1.6 µM	1.42 µM	3.57 µM	0.495 µM	2.19 µM	0.827 µM	2.37 µM	0.582 µM	2.8 µM	0.42 µM	4.94 µM	0.375 µM
NC(=S)N/N=C/c1ccc(O)cn1	9.37 µM and 2.96 µM	46 µM and > 408 µM	4.27 µM and 2.77 µM	23.6 µM and 10.9 µM and 17.2 µM	12.4 µM and 36 µM	131 µM and 292 µM	3.09 µM			5.55 µM and 3.43 µM		33.2 µM and 41.1 µM	> 1500 µM and 584 µM	35 µM	> 1500 µM	10.2 µM and 1.41 µM and 7 µM		6.5 µM and 3.19 µM and 1.36 µM		12.4 µM
Clc1cccc(N2CCN(CCN3CCc4c([nH]c5ccccc45)C3c3cccnc3)CC2)c1 (stereo unspecified)		> 73.5 µM		62.9 µM		> 100 µM		> 100 µM	> 93.1 µM		> 100 µM		> 100 µM		> 100 µM		> 100 µM		> 100 µM	
COc1cc2c(cc1OC)-c1ccc3cc4c(cc3c1N(CCN(C)C)C2)OCO4	0.442 µM	1.99 µM	0.352 µM	2.53 µM	0.723 µM	2.53 µM	10.9 µM	45.6 µM	1.32 µM	0.214 µM	2.41 µM	0.694 µM	2.13 µM	0.97 µM	2.47 µM	0.188 µM	1.56 µM	0.158 µM	2.57 µM	0.271 µM
CCCOC(=O)N[C@H]1CCc2cc(OC)c(OC)c(OC)c2-c2ccc(SC)c(=O)cc21	< 0.01 µM	> 100 µM	< 0.01 µM	0.173 µM	< 0.01 µM		0.0268 µM	> 100 µM	> 42.4 µM	< 0.01 µM	> 54.1 µM	< 0.01 µM	> 100 µM	< 0.01 µM	> 38.6 µM	< 0.01 µM	7.25 µM	< 0.01 µM	24.4 µM	< 0.01 µM
OC(C1CO1)C(O)C1CO1 (stereo unspecified)	18.7 µM	48.5 µM and 139 µM		106 µM and 128 µM	116 µM	134 µM and 263 µM	81 µM	123 µM and 320 µM	78.3 µM and 233 µM	27.4 µM and 27.5 µM	114 µM and 513 µM	16.5 µM and 8.67 µM	150 µM and 235 µM		112 µM and 254 µM	11.3 µM	94.8 µM and 175 µM	1.95 µM	103 µM and 239 µM	12 µM
CN1C(=O)C(=Cc2cn(Cc3ccccc3)c3ccccc23)C(=O)N(C)C1=O	57.7 µM	> 100 µM	47.3 µM	> 100 µM	0.518 µM	1.19 µM	> 70 µM	> 100 µM	> 100 µM	> 86.6 µM	> 100 µM	> 39.7 µM	> 100 µM	52.4 µM	> 100 µM	> 100 µM	> 100 µM	68.3 µM	> 100 µM	35.3 µM
O=C1NC(=O)C(c2ccc(Cl)cc2)=C1Nc1ccc(Cl)c(C(=O)O)c1	> 25 µM	> 25 µM	> 25 µM	> 25 µM	> 25 µM	> 25 µM	> 25 µM	> 25 µM	> 25 µM	> 25 µM	> 25 µM	> 25 µM	> 25 µM	> 25 µM	> 25 µM	> 25 µM	> 25 µM	> 25 µM	> 25 µM	> 25 µM
COc1cc(-c2csc(NC(=O)Nc3cc(C(F)(F)F)cc(C(F)(F)F)c3)n2)cc(OC)c1OC	3.17 µM	11.8 µM	2.28 µM	6.75 µM	1.11 µM	5.08 µM	2.65 µM	12.1 µM	12.3 µM	3.64 µM	15.7 µM	2.62 µM	12.4 µM	2.49 µM	11.8 µM	1.6 µM	5 µM	2.17 µM	8.99 µM	3.04 µM
CC1(C)CCC[C@]2(C)c3cc(O)ccc3CC[C@@H]12	27.3 µM	79.7 µM	18.3 µM	33.1 µM	16.2 µM	29.7 µM	16.5 µM	32.5 µM	33.7 µM	16.4 µM	33.4 µM	19 µM	36.5 µM	14.1 µM	31.2 µM	21.5 µM	47.4 µM	11.7 µM	67.3 µM	16.9 µM
C[n+]1c2ccccc2c(Nc2ccc(NS(=O)(=O)CCCCN=C(N)N)cc2)c2ccc(N)cc21	3.8 µM	> 100 µM	3.37 µM	> 100 µM	0.32 µM	31.4 µM	> 100 µM	> 100 µM	> 100 µM	2.16 µM	> 85.5 µM	< 0.0128 µM	16 µM	3.5 µM	> 79.1 µM	2.03 µM	25.6 µM	0.0212 µM		1.82 µM
Clc1ccc(C(c2ccc(Cl)cc2)N2CCNCC2)cc1		3.17 µM		3.02 µM		4.2 µM		13.6 µM	4.53 µM		19.7 µM		8.4 µM		3.63 µM		3.46 µM		5 µM	
